The target in series [1] is T1, Human platelet homogenate heparanase activity (Homo sapiens, UniProt Q9Y251).
T1 construct: assessed using the highly invasive rat mammary adenocarcinoma 13762 MAT and human platelet homogenates; from tissue; host or cells: human platelets (Triton X-100 freeze/thaw homogenate)
T1 sequence (Q9Y251 36-543): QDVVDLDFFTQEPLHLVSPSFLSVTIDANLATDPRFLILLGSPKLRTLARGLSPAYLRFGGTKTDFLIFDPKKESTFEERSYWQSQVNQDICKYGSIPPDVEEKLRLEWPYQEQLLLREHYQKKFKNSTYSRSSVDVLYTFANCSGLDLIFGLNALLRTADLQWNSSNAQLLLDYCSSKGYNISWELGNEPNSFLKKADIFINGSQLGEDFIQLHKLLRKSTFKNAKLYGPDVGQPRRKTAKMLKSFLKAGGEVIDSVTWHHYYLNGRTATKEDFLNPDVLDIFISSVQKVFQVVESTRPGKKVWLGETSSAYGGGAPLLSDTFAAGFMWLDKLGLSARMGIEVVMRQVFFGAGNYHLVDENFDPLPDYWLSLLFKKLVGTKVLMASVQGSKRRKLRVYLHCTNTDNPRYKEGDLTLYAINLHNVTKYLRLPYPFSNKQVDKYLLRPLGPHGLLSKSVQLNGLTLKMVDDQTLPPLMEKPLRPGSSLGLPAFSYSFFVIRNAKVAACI
Put plainly: Substrate degradation by human platelet homogenate heparanase activity. The format is biochemical. The protocol: (§1) To assay for heparanase activity, up to 2 μl of sample was added to an incubation mixture consisting of 90 pmol of radiolabelled HS in 0.05M-sodium acetate buffer, pH 5.1, containing 5 mM-N-acetylmannosamine and 0.1 mg/ml BSA in a total volume of 20 μl and incubated at 37° C. for the appropriate time. The reaction was stopped by freezing the tubes, 0.3 ml cold PBS added, the solution centrifuged if necessary at 4° C. and 0.1 ml of the sample applied to a cHRG-Sepharose mini-column pre-equilibrated in PBS. The columns were washed with 0.7 ml PBS, the washings and flow through material transferred to a scintillation vial, 10 ml of scintillation fluid added, and the radioactivity determined. Enzyme activity was expressed as pmol product formed per hour per mg protein or 10^6 cells or ml of serum. The cHRG-Sepharose columns were regenerated by the addition of 1 ml of 0.05M-Tris-HCl buffer, pH 7.5, containing 2M-NaCl and then equilibrated with PBS.
Heparanase activity was also detected by gel filtration chromatography of the incubation mixture on a Superose 6 HR 10/30 column (Pharmacia LKB Biotechnology, Uppsala, Sweden), equilibrated in and subsequently developed in PBS. The Pharmacia FPLC system was run at a flow rate of 0.25 ml/min with 0.5 ml fractions collected directly into scintillation vials, to which 3 ml of scintillation fluid was added, and the radioactivity determined. […]

The target of series [2] is T2, 13762 MAT cell heparanase (Rattus norvegicus, UniProt Q71RP1).
T2 construct: A time course incubation of 13762 MAT cell homogenates with HS at pH 5.1; endogenous in cells; host or cells: rat mammary adenocarcinoma 13762 MAT cells (Triton X-100 freeze/thaw homogenate)
T2 sequence (Q71RP1 29-536): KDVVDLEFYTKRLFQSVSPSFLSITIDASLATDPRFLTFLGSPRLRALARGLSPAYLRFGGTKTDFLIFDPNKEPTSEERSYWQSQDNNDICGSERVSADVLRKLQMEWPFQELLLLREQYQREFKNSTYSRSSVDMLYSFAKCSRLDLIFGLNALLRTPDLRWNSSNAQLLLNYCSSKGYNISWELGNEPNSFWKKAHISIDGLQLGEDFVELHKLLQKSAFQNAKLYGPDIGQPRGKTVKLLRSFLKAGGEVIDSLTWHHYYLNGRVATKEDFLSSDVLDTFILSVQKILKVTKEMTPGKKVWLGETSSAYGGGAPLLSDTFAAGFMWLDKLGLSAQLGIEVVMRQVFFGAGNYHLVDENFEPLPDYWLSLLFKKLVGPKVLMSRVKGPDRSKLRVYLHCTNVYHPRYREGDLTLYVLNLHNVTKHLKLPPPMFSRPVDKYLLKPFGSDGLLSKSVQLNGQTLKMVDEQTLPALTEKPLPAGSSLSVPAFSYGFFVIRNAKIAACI
Put plainly: Gel filtration analysis of substrate degradation by rat 13762 MAT cell homogenate. The format is biochemical. The settings on record: for heparanase activity towards the substrate: incubation for 16 h at pH 5.1, 6.5 or 7.5; for apparent Mr of degradation fragments: with NAM. On the procedure: as §1, with “[…],” for “incubation mixture consisting of 90 pmol of radiolabelled HS in 0.05M-sodium acetate buffer, pH 5.1,”
Heparanase activity was also detected by gel filtration chromatography of the incubation mixture on a Superose 6 HR 10/30 column (Pharmacia LKB Biotechnology, Uppsala, Sweden), equilibrated in and subsequently developed in PBS. The Pharmacia FPLC system was run at a flow rate of 0.25 ml/min with 0.5 ml fractions collected directly into scintillation vials, to which 3 ml of scintillation fluid was added, and the radioactivity determined. The column was calibrated with ^3H-N-acetylglucosamine (221 Da), bovine lung heparin (12.5 kDa) and heparin-derived Mr ave. standards (16.7, 10.6, 6.7 and 3.1 kDa) which had been partially de-N-acetylated and re-N-acetylated with ^3H-acetic anhydride as described above for the preparation of radiolabelled HS. Radiolabelled chondroitin-6-sulphate and carboxyl-reduced HS (prepared by the method of Karamanos et al, (1988)) were also prepared by the above method.

Another series is described as follows: Storage stability. Type of series: physicochemical. The following applies: stored at −20° C. in 10% (v:v) aqueous ethanol, repeated freezing and thawing.
In a further series the test system is cHRG-Sepharose. The experiment in a line: Binding of HS to cHRG-Sepharose, NaCl gradient elution. On the set-up: species or system chicken. The settings on record: salt gradient at pH 7.2. On the procedure: Binding of HS to cHRG-Sepharose; Samples in 200 μl of PBS were applied to a mini-column (0.5×4.0 cm) of cHRG-Sepharose equilibrated in PBS at 4° C. The column was washed with 2 ml of PBS and eluted with a linear gradient (2×10 mls) of PBS and 10 mM-sodium phosphate buffer, pH7.2, containing 1.2M-NaCl developed at 0.5 ml/min with 0.5 ml fractions collected directly into scintillation vials, to which 4 ml of scintillation fluid was added and the radioactivity determined. The columns were re-equilibrated in PBS for further use.

Series [3] deals with T3, human platelet heparanase (Homo sapiens, UniProt Q9Y251).
T3 construct: human platelet heparanase has been purified to homogeneity from previously frozen, washed platelets; from tissue; host or cells: human platelets (frozen, washed; five-column purification)
T3 sequence (Q9Y251 158-543 limits assumed): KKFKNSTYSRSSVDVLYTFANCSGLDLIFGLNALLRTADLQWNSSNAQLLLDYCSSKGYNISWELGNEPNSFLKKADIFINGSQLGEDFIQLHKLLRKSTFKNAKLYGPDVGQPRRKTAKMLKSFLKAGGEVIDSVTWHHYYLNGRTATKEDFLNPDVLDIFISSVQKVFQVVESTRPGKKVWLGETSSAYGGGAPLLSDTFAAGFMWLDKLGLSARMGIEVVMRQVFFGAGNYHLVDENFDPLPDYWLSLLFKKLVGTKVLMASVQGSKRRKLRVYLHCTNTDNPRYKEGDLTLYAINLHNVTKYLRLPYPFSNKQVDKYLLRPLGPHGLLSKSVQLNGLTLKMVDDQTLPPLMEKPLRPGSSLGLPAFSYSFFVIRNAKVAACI
T3 sequence (Q9Y251 36-109 limits assumed): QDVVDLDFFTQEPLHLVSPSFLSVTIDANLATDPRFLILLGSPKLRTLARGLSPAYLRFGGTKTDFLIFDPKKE
The experiment in a line: Heparanase assay 2: gel filtration analysis of HS or heparin degradation by purified human platelet heparanase. The format is biochemical. The settings on record: 16 h at 37° C. The protocol: Heparanase activity towards 2 μg of the radiolabelled HS or heparin analogues was assayed as described above for 16 h at 37° C., and detected by gel filtration analysis of the incubation mixture on either Superose 6 (for HS degradation) or Superose 12 (for heparin degradation). The chromatography columns were both equilibrated in and developed with PBS at a flow rate of 0.25 ml/min with 0.5 ml fractions being collected directly into scintillation vials, to which 3 ml of scintillation fluid was added, and the radioactivity determined. The columns were calibrated with ^3H-N-acetylglucosamine (221 Da), bovine lung heparin (12.5 kDa) and heparin-derived Mrave. standards (16.7, 10.6, 6.7 and 3.1 kDa) which had been partially de-N-acetylated and re-N-acetylated with ^3H-acetic anhydride as described above for the preparation of radiolabelled HS.
In general terms: Size exclusion chromatography separates by hydrodynamic size, large species first.

Experimental findings from patent US6352852B1, “Method for the purification of human platelet heparanase” (The Australian National University, priority 1996, dated 2002) are described below.

With “carboxyl-reduced heparan sulphate [CR-HS]”, the “heparanase activity towards the substrate” value in series [1] is reported as “did not act”; in series [2] it was “No activity was detected”.

Turning to heparan sulphate [HS], the “size of digestion fragments” value in series [1] is listed as 5 kDa. Moreover, in “Storage stability”, the storage stability entry is reported as “stable for over a year”. For the same substance, the “NaCl concentration eluting from cHRG-Sepharose” value in the series with cHRG-Sepharose was found to be 0.27 M-NaCl. The “apparent Mr of degradation fragments” value in series [2] (pH 5.1, 16 h at 37° C.) turned out to be 5 kDa; in series [2] (pH 6.5, 16 h at 37° C.), 8 kDa; in series [2] (pH 7.5, 16 h at 37° C.) it was 16 kDa. For the same substance, in series [3], the “size of fragments after cleavage” value amounted to 5 kDa.

On to “chondroitin-6-sulphate [chrondroitin-6-sulphate]”, for which the “heparanase activity towards the substrate” value in series [2] is “No activity was detected”.
